From patent publication US9757337B2, “Multicompartmental lipid nanoparticles” (CENTRE NATIONAL DE LA RECHERCHE SCIENTIFIQUE—CNRS, priority 2013, dated 2017) come the findings set out here.

A short description of the data set: Stability of quercetin in various fluids quantified by HPLC assay. Type of data set: physicochemical. The procedure:
To this end, the stability of quercetin in various fluids was quantified by means of an HPLC assay. The various fluids studied were simulated gastric fluid (SGF, US Pharmacopeia) at room temperature and at 37° C., simulated intestinal fluid (SIF, US Pharmacopeia), 10 mM HEPES buffer (pH 7.4) and room-temperature water.

Turning to `O=c1c(O)c(-c2ccc(O)c(O)c2)oc2cc(O)cc(O)c12` [quercetin], the “stability in more acidic fluids compared with room-temperature water” value (more acidic fluids (SGF), samples over 24 hours) is listed as “more stable”. Besides, the quercetin degraded result (room-temperature water, within 17 hours) is recorded as “about 50%”.
